Tests used:
[1] = test system: patients with relapsed or refractory peripheral T-cell lymphoma (R/R PTCL); assay: Phase 2 open-label parallel cohort trial of duvelisib in R/R PTCL, dose-optimization phase (25 mg BID vs 75 mg BID); assay type: in vivo, human; details: for overall response rate (ORR): 28-day cycles, oral
Experimental: Prior to the present disclosure, Applicant ran a clinical trial using duvelisib to treat PTCL. The trial included two cohorts. In cohort 1, subjects were orally administered duvelisib at a starting dose of 25 mg twice daily (BID), with potential escalation on a per-patient basis to 50 mg BID and then 75 mg BID, based on the patient's response to and tolerance of therapy. Doses were administered in 28-day cycles. In cohort 2, subjects were orally administered 75 mg duvelisib BID, in 28-day cycles. The overall response rate (ORR) in the 75 mg BID cohort was 54% ORR.
A phase 2, open-label, multi-center, parallel cohort trial of duvelisib in R/R PTCL was carried out. Patients were treated with duvelisib for two 28-day cycles with either 25 mg BID (DUV25) or 75 mg BID (DUV75). Patients with pathologically confirmed R/R PTCL (WHO criteria) after ≥2 cycles of ≥1 prior standard regimen, and a CD4 lymphocyte count of ≥50/mm^3 were eligible for enrollment in the study.

[2] = test system: patients with relapsed or refractory peripheral T-cell lymphoma (R/R PTCL); assay: Expansion phase (PRIMO-EP) of the trial in R/R PTCL: duvelisib 75 mg BID for 2 cycles, then 25 mg BID; assay type: in vivo, human; details: for AESI Cutaneous reactions, % / AESI Diarrhea, % / AESI Infections, % / AESI Neutropenia/neutrophil count decreased, % / AESI Pneumonia, % / AESI Pneumonitis, % / AESI Transaminase elevation, % / AESI Colitis, %: all grades
Experimental: An expansion phase of the above trial described in Example 1 was carried out. Based on the dose optimization results, patients in the expansion phase received duvelisib at 75 mg BID for 2 cycles to maximize rapid tumor control, followed by 25 mg BID to maintain long-term disease control and mitigate late toxicities, until progressive disease (PD) or unacceptable toxicity. The primary endpoint was the overall response rates (ORR) as assessed by the Independent Review Committee (IRC), and secondary endpoints included ORR by INV assessment, duration of response (DOR), progression free survival (PFS), overall survival (OS), disease control rate (DCR), and safety. […] Analysis was performed on data collected from a total of 101 patients with a median follow-up of 8.7 months from time of first response. All patients had pathologically confirmed PTCL (WHO criteria) with a CD4 lymphocyte count of ≥50/mm^3 and received ≥2 cycles of ≥1 prior standard regimen. Prior treatments received included CHOP/R-CHOP, CHOEP/EPOCH, or BV/BV-chemo (all 36.60% r), salvage chemo after CHOP/R-CHOP or CHOEP/EPOCH (37.60), and SCT (21.80). The mean treatment duration was 17.1 weeks, and the median (range) treatment duration was 9.0 (1-79) weeks. Exposure by treatment duration included 43.6% (≤2 cycles), 23.8% (>2-4 cycles), and […] (>4 cycles). The ORR by IRC was […]. In patients with ≥3 prior lines, the ORR was maintained (49.10%).

[3] = Prior Salvage Chemotherapy CHOP/R-CHOP or CHOEP/EPOCH
[4] = all causality, 1 prior regimen (N = 26)
[5] = all causality, 2 prior regimens (N = 22)
[6] = all causality, 3+ prior regimens (N = 53)
[7] = all causality, Tx Duration >2-4 cycles (N = 56)
[8] = all causality, Tx Duration >4 cycles (N = 31)
[9] = all causality, Tx Duration ≤2 cycles (N = 101)

## C[C@H](Nc1ncnc2[nH]cnc12)c1cc2cccc(Cl)c2c(=O)n1-c1ccccc1 [duvelisib, (S)-3-(1-((9H-purin-6-yl)amino)ethyl)-8-chloro-2-phenylisoquinolin-1(2H)-one]
[1]; 25 mg BID cohort (N=20)
  overall response rate (ORR): 35%
[1]; 25 mg BID cohort vs 75 mg BID cohort
  patients with disease progression, 25 mg BID cohort compared to 75 mg BID: three times as many patients experienced disease progression
[1]; 75 mg BID cohort (N=13)
  overall response rate (ORR): 54%
[1]; DUV25, 25 mg BID
  Discontinuations due to AEs: 30%
  TEAEs leading to discontinuation: disease progression, pneumonitis (2 patients each), cardiac arrest, hypercalcemia, hyperglycemia, pneumonia, rash maculopapular, and respiratory failure (1 each)
  fatal AEs (number): 5
[1]; DUV25, 25 mg BID (n=15/20)
  Serious TEAEs occurred in: 75%
[1]; DUV75, 75 mg BID
  Discontinuations due to AEs: 8%
  TEAEs leading to discontinuation: disease progression, infectious colitis, and sepsis (1 each)
[1]; DUV75, 75 mg BID (disease progression)
  fatal AEs (number): 1
[1]; DUV75, 75 mg BID (n=9/13)
  Serious TEAEs occurred in: 69%
[1]; both cohorts
  manageability of most TEAEs: manageable with dose reductions and dose holds
[1]; both cohorts (N=33)
  Serious TEAEs in ≥2 patients: colitis, diarrhea, abdominal pain, pyrexia, PD, sepsis, pneumonia, hyponatremia, rash maculopapular, dyspnea, and respiratory failure
[2]; 1 prior regimen (n = 26)
  Response (CR + PR) by number of prior regimens: 34.6%
[2]; 2 prior regimens (n = 22)
  Response (CR + PR) by number of prior regimens: 63.6%
[2]; 3+ prior regimens (n = 53)
  Response (CR + PR) by number of prior regimens: 49.1%
[2]; % of patients
  TEAEs leading to dose hold: 37.6%
  TEAEs leading to dose reduction: 3.0%
[2]; AE, all causality, maximum GR3
  diarrhea: 7.9%
  increased alanine aminotransferase (ALT): 14.9%
  increased aspartate aminotransferase (AST): 13.4%
  neutropenia: 13.8%
  rash maculo-papular: 7.9%
[2]; AE, all causality, maximum GR4
  increased ALT: 5.9%
[2]; N = 101
  Median (range) PFS: 3.62 (0.03+-17.2+) months
  deaths in TEAEs other than PD (total): 8
[2]; Prior BV or BV-chemo
  BOR by prior therapy: CR: 32.4 % of subgroup
  BOR by prior therapy: PR: 10.8 % of subgroup
  BOR by prior therapy: SD: 0 % of subgroup
[2]; Prior CHOEP/EPOCH
  BOR by prior therapy: CR: 27.0 % of subgroup
  BOR by prior therapy: PR: 27.0 % of subgroup
  BOR by prior therapy: SD: 0 % of subgroup
[2]; Prior CHOP/R-CHOP
  BOR by prior therapy: CR: 37.8 % of subgroup
  BOR by prior therapy: PR: 5.4 % of subgroup
  BOR by prior therapy: SD: 2.7 % of subgroup
[2]; Prior SCT
  BOR by prior therapy: CR: 22.7 % of subgroup
  BOR by prior therapy: PR: 27.3 % of subgroup
  BOR by prior therapy: SD: 0 % of subgroup
[2]; [3]
  BOR by prior therapy: CR: 44.7 % of subgroup
  BOR by prior therapy: PR: 7.9 % of subgroup
  BOR by prior therapy: SD: 0 % of subgroup
[2]; [4]
  AESI Cutaneous reactions, %: (38.5) %
  AESI Diarrhea, %: (15.4) %
  AESI Infections, %: (30.8) %
  AESI Neutropenia/neutrophil count decreased, %: (38.5) %
  AESI Pneumonia, %: (3.8) %
  AESI Pneumonitis, %: (3.8) %
  AESI Transaminase elevation, %: (65.4) %
[2]; [5]
  AESI Cutaneous reactions, %: (54.5) %
  AESI Diarrhea, %: (27.3) %
  AESI Infections, %: (31.8) %
  AESI Neutropenia/neutrophil count decreased, %: (27.3) %
  AESI Transaminase elevation, %: (40.9) %
[2]; [6]
  AESI Colitis, %: (1.9) %
  AESI Cutaneous reactions, %: (24.5) %
  AESI Diarrhea, %: (39.6) %
  AESI Infections, %: (49.1) %
  AESI Neutropenia/neutrophil count decreased, %: (32.1) %
  AESI Pneumonia, %: (3.8) %
  AESI Pneumonitis, %: (1.9) %
  AESI Transaminase elevation, %: (34.0) %
[2]; [7]
  AESI Cutaneous reactions, %: (28.6) %
  AESI Diarrhea, %: (14.3) %
  AESI Infections, %: (16.1) %
  AESI Neutropenia/neutrophil count decreased, %: (14.3) %
  AESI Pneumonitis, %: (1.8) %
  AESI Transaminase elevation, %: (30.4) %
[2]; [8]
  AESI Colitis, %: (3.2) %
  AESI Cutaneous reactions, %: (22.6) %
  AESI Diarrhea, %: (22.6) %
  AESI Infections, %: (32.3) %
  AESI Neutropenia/neutrophil count decreased, %: (25.8) %
  AESI Pneumonia, %: (3.2) %
[2]; [9]
  AESI Cutaneous reactions, %: (19.8) %
  AESI Diarrhea, %: (19.8) %
  AESI Infections, %: (26.7) %
  AESI Neutropenia/neutrophil count decreased, %: (28.7) %
  AESI Pneumonia, %: (2.0) %
  AESI Pneumonitis, %: (1.0) %
[2]; all prior-regimen subgroups
  response rates regardless of number of prior regimens: ≥ 35%
[2]; all responders
  Median duration of response: 7.7 months
[2]; from Cycle ≤2 to Cycle >4
  increase of rate of cutaneous reactions: 2.8%
  increase of rate of diarrhea: 2.8%
  increase of rate of infections: 5.6%
[2]; interim results of the expansion phase
  tolerability: well tolerated
[2]; regardless of treatment duration, Cycle ≤2 to Cycle >4
  Incidence of pneumonia, pneumonitis, and colitis: 0-3.2%
[2]; those in CR
  Median duration of response: 7.4 months
